Reference: patent US9944603B2, “Compounds and methods for the treatment of cystic fibrosis” (Flatley Discovery Lab, LLC, priority 2013, dated 2018)

Target: T1, human F508del CFTR (Homo sapiens, UniProt P13569, DEL508-508)
T1 construct: expressed in transfected cells
Assay: CFTR-YFP Assay, CFTR Corrector Protocol (YFP flux assay)
Type: cell-based
Details: for Emax: normalized to the positive control, read-out: EMAX (% Efficacy, EMAX normalized to the positive control)

T1 sequence (P13569 with tags, fused parts or gaps DEL508-508): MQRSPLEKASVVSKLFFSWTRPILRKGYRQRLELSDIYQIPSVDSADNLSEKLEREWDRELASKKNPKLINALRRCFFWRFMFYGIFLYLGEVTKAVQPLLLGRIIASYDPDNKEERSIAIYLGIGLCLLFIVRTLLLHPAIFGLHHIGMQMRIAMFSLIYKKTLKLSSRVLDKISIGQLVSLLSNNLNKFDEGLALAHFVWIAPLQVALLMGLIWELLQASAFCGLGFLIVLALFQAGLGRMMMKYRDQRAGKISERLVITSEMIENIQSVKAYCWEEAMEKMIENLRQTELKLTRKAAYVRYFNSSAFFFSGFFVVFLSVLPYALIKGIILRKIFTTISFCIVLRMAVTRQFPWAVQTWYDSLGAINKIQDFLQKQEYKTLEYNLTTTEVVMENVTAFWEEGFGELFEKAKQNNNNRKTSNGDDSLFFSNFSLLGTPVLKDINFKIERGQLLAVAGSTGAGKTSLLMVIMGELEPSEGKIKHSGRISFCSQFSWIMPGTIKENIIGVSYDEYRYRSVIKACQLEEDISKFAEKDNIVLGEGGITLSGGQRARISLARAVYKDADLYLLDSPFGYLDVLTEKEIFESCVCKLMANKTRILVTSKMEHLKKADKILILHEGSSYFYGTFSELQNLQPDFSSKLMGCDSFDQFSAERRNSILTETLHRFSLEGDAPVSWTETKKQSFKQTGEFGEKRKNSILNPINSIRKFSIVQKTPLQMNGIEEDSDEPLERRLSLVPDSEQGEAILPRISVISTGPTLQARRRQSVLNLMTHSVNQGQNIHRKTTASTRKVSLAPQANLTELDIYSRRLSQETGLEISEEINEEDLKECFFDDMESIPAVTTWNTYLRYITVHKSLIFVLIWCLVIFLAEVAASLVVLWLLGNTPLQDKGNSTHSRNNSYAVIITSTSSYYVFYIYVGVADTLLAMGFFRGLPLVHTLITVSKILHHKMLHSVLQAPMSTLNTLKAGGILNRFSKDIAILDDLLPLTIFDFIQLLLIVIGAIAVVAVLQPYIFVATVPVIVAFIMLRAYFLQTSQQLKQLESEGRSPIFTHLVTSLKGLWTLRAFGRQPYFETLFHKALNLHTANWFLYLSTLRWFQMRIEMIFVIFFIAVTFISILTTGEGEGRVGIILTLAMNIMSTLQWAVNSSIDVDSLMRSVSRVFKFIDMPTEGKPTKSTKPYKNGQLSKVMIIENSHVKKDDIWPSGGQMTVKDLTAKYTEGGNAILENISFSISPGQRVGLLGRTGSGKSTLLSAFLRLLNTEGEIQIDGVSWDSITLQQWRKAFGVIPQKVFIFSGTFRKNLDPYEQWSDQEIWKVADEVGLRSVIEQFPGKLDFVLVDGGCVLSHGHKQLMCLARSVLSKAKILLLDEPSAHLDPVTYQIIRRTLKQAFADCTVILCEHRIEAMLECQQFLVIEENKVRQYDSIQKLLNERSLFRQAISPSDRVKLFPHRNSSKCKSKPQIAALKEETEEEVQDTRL

SMILES | EC50 | Emax
CCc1ccc(S(=O)(=O)N2CCC(N(c3ccccn3)S(=O)(=O)c3cccc(Cl)c3)CC2)cc1 [Example 234] | < 10 µM | 30 to 80%
CCc1ccc(S(=O)(=O)N2CCC(N(c3ccccn3)S(=O)(=O)c3ccc(Cl)cc3)CC2)cc1 [Example 235] | < 10 µM | 30 to 80%
CCc1ccc(S(=O)(=O)N2CCC(N(c3ccc(OC)cc3)S(=O)(=O)c3ccccc3Cl)CC2)cc1 [Example 236] | < 10 µM | 10 to 30%
CCc1ccc(S(=O)(=O)N2CCC(N(c3ccc(C)cc3)S(=O)(=O)c3ccccc3Cl)CC2)cc1 [Example 237] | < 10 µM | 10 to 30%
CCc1ccc(S(=O)(=O)N2CCC(N(c3cccc(C)c3)S(=O)(=O)c3ccccc3Cl)CC2)cc1 [Example 238] | < 10 µM | 30 to 80%
CCc1ccc(S(=O)(=O)N2CCC(N(c3ccccc3OC)S(=O)(=O)c3ccccc3Cl)CC2)cc1 [Example 239] | < 10 µM | 10 to 30%
CCc1ccc(S(=O)(=O)N2CCC(N(c3cc(C)ccn3)S(=O)(=O)c3ccccc3Cl)CC2)cc1 [Example 240] | < 10 µM | 10 to 30%
CCc1ccc(S(=O)(=O)N2CCC(N(c3ccc(F)cc3)S(=O)(=O)c3ccccc3Cl)CC2)cc1 [Example 241] | < 10 µM | 10 to 30%
CCc1ccc(S(=O)(=O)N2CCC(N(c3ncccn3)S(=O)(=O)c3ccccc3Cl)CC2)cc1 [Example 242] | < 10 µM | 10 to 30%
CCc1ccc(S(=O)(=O)N2CCC(N(c3ccc(C(F)(F)F)cn3)S(=O)(=O)c3ccccc3Cl)CC2)cc1 [Example 243] | 10 to 20 µM | 10 to 30%
CCc1ccc(S(=O)(=O)N2CCC(N(c3cc(OC)ccn3)S(=O)(=O)c3ccccc3Cl)CC2)cc1 [Example 244] | 10 to 20 µM | 30 to 80%
CCc1ccc(S(=O)(=O)N2CCC(N(c3cnc(OC)cn3)S(=O)(=O)c3ccccc3Cl)CC2)cc1 [Example 245] | < 10 µM | 30 to 80%
CCc1ccc(S(=O)(=O)N2CCC(N(c3cccc(OC)c3)S(=O)(=O)c3ccccc3Cl)CC2)cc1 [Example 246] | 10 to 20 µM | 30 to 80%
CCc1ccc(S(=O)(=O)N2CCC(N(c3ncccc3OC)S(=O)(=O)c3ccccc3Cl)CC2)cc1 [Example 247] | < 10 µM | 30 to 80%
CCc1ccc(S(=O)(=O)N2CCC(N(c3cnccn3)S(=O)(=O)c3ccccc3Cl)CC2)cc1 [Example 248] | < 10 µM | 30 to 80%
CCc1ccc(S(=O)(=O)N2CCC(N(c3ccncn3)S(=O)(=O)c3ccccc3Cl)CC2)cc1 [Example 249] | < 10 µM | 30 to 80%
